Test results from publication PMC6769468, “Endogenous Neuropeptide Nocistatin Is a Direct Agonist of Acid-Sensing Ion Channels (ASIC1, ASIC2 and ASIC3)” (Biomolecules, 2019).
Ends that are not written are not given here.

Target: T1, rat ASIC3 (Rattus norvegicus, UniProt O35240)
T1 construct: expressed in transfected cells; host or cells: Xenopus laevis oocytes (injected)
T1 sequence (O35240 1-533): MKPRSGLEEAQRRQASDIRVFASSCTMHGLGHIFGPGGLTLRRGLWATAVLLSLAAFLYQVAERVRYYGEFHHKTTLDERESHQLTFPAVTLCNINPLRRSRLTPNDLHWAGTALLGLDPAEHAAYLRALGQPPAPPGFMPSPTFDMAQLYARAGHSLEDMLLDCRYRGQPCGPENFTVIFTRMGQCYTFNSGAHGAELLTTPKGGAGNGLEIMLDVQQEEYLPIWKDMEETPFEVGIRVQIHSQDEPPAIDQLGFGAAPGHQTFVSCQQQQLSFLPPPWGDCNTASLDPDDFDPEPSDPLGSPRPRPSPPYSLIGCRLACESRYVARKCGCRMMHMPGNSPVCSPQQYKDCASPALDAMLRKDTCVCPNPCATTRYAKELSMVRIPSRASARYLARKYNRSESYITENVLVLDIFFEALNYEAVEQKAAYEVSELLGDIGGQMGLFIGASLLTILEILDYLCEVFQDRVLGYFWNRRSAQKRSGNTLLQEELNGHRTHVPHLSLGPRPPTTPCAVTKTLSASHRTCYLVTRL
Experiment: Whole-cell current activation, rat ASIC3 in X. laevis oocytes
Assay type: cell-based
Protocol: Oocytes expressed rASIC1a, rASIC1b, rASIC2a, and rASIC3 homomeric channels were prepared as described. Injected oocytes were kept for two–three days at 19 °C and then for up to seven days at 15 °C in ND-96 medium supplemented with gentamycin (50 μg·mL^−1) and containing (in mM): 96 NaCl, 2 KCl, 1.8 CaCl2, 1 MgCl2, and 10 HEPES titrated to pH 7.4 with NaOH. Electrophysiological recordings were performed using the GeneClamp500 amplifier (Axon Instruments, Inverurie, UK) at a holding potential of -50 mV. The data were filtered at 20 Hz and digitized at 100 Hz using the L780 AD converter (L-Card, Moscow, Russia). Microelectrodes were filled with 3 M KCl. The external bath solution was ND-96 with pH adjusted to 7.4/7.8 (10 mM HEPES) /8.5 (10 mM Tris). Nocistatin containing solutions were freshly prepared and buffered each experimental day in ND-96 bath solution (pH 7.4/7.8/8.5). Proton-activated currents through ASIC channels were elicited by application of ND-96, in which 10 mM of HEPES was substituted with 10 mM MES at pH 5.5/ 10 mM acetic acid at pH 4.5. […]
All data are presented as mean ± SEM. The significance of normalized data differences was determined with a non-parametric Kruskal-Wallis ANOVA test with the significance level * p < 0.05 and ** p < 0.01; ns, non-significant.

For “MPRVRSVVQARDAEPEADAEPVADEADEVEQKQLQ [rNS]”, the “tmax greater than for protons by” value (1 mM rNS vs pH drop 7.4–5.5, slower activation) was ~ 49% and the “τdes (desensitization time constant)” value (1 mM rNS, conditioning pH 7.4, mean ± S.E. from 4–7 measurements) was 0.4 ± 0.1 s.
